pIC50: −log10 of the molar value. Where two headings read alike, the source gives them in different places.
Tests used:
[1] = system: HEK293; test: Cellular IC50 HEK293; format: cell-based
Text: (§1) XLfit (idbs) was used to determine the IC50-values in inhibition experiments. The following formula was chosen to fit the data points (Langmuir Binding Isotherm): fit=((A+(B*x))+4(C−B)*(1−exp((−1*D)*x)))/D)), res=(y−fit)

[2] = target: TNKS2 (Homo sapiens (Human), UniProt Q9H2K2); test: Biochemical IC50 TNKS2; settings: read-out: Biochemical IC50 TNKS2
Text: as §1

[3] = Homo sapiens, HEK293, HEK293; read-out: Cellular IC50 HEK293
[4] = Homo sapiens, HEK293; read-out: Cellular IC50 HEK293
[5] = Homo sapiens, HEK293, read-out: Cellular IC50 HEK293

Sequence of TNKS2 (Q9H2K2 whole entry): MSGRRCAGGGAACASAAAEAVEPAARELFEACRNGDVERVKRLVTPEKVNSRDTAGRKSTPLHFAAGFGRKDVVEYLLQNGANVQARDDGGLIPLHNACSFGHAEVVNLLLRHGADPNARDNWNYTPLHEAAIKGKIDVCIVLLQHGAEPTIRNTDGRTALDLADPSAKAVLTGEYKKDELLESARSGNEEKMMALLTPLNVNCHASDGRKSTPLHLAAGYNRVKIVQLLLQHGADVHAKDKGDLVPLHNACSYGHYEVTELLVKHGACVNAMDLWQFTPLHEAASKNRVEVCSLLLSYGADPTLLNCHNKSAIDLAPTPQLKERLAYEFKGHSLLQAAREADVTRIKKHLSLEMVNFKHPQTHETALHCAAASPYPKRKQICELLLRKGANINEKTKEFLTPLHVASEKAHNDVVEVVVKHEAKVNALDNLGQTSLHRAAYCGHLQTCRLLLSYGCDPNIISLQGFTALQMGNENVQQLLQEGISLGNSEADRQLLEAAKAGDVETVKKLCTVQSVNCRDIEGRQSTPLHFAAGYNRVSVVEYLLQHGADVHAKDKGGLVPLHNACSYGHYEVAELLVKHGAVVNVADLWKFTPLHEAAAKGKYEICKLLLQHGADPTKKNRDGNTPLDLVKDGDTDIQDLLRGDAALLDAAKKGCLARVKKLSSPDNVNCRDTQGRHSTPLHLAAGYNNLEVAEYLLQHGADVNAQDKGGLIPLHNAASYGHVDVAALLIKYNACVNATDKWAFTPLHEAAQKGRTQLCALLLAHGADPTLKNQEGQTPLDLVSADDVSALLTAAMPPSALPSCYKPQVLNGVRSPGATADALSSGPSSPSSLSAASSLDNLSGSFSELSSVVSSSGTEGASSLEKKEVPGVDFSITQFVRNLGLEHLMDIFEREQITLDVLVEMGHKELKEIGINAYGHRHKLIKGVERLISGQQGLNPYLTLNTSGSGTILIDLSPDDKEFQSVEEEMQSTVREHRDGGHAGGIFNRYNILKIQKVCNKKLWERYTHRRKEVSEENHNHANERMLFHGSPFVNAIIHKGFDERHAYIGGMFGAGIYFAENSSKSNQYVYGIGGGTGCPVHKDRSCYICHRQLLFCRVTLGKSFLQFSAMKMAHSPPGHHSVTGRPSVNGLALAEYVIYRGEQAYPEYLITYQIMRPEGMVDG

Compound	pIC50 [1, 3]	pIC50 [2]	pIC50 [1, 4]	pIC50 [1, 5]
O=C(N[C@H]1C[C@H](c2nnc(-c3nccs3)n2-c2ccccc2)C1)c1ccnc2cccnc12 [Example 33, N-((1r,3r)-3-(4-phenyl-5-(thiazol-2-yl)-4H-1,2,4-triazol-3-yl)cyclobutyl)-1,5-naphthyridine-4-carboxamide]	8.37	8.51		
O=C(N[C@H]1C[C@H](c2nnc(-c3nccs3)n2-c2ccccc2)C1)c1ccccc1 [Example 34, N-((1r,3r)-3-(4-phenyl-5-(thiazol-2-yl)-4H-1,2,4-triazol-3-yl)cyclobutyl)benzamide]	6.04	6.54		
O=C(N[C@H]1C[C@H](c2nnc(-c3nccs3)n2-c2ccccc2)C1)c1ccc(F)cc1 [Example 35, 4-fluoro-N-((1r,3r)-3-(4-phenyl-5-(thiazol-2-yl)-4H-1,2,4-triazol-3-yl)cyclobutyl)benzamide]	6.24	6.92		
O=C(N[C@H]1C[C@H](c2nnc(-c3nccs3)n2-c2ccccn2)C1)c1ccnc2cccnc12 [Example 37, N-((1r,3r)-3-(4-(pyridin-2-yl)-5-(thiazol-2-yl)-4H-1,2,4-triazol-3-yl)cyclobutyl)-1,5-naphthyridine-4-carboxamide]	7.06	7.60		
O=C(N[C@H]1C[C@H](c2nnc(-c3nccs3)n2-c2ccccn2)C1)c1cccc2cccnc12 [Example 38, N-((1r,3r)-3-(4-(pyridin-2-yl)-5-(thiazol-2-yl)-4H-1,2,4-triazol-3-yl)cyclobutyl)quinoline-8-carboxamide]	7.34	7.35		
O=C(N[C@H]1C[C@H](c2nnc(-c3nccs3)n2-c2ccccn2)C1)c1ccnc2cc(F)cnc12 [Example 39, 7-fluoro-N-((1r,3r)-3-(4-(pyridin-2-yl)-5-(thiazol-2-yl)-4H-1,2,4-triazol-3-yl)cyclobutyl)-1,5-naphthyridine-4-carboxamide]	7.80	7.55		
O=C(N[C@H]1C[C@H](c2nnc(-c3nccs3)n2-c2ccccc2Cl)C1)c1ccnc2cccnc12 [Example 41, N-((1S,3r)-3-(4-(2-chlorophenyl)-5-(thiazol-2-yl)-4H-1,2,4-triazol-3-yl)cyclobutyl)-1,5-naphthyridine-4-carboxamide]	9.19	8.70		
O=C(N[C@H]1C[C@H](c2nnc(-c3nccs3)n2-c2ccccc2Cl)C1)c1ccccn1 [Example 42, N-((1S,3r)-3-(4-(2-chlorophenyl)-5-(thiazol-2-yl)-4H-1,2,4-triazol-3-yl)cyclobutyl)picolinamide]	7.70	8.23		
O=C(N[C@H]1C[C@H](c2nnc(-c3nccs3)n2-c2ccccc2Cl)C1)c1ccccc1 [Example 43, N-((1S,3r)-3-(4-(2-chlorophenyl)-5-(thiazol-2-yl)-4H-1,2,4-triazol-3-yl)cyclobutyl)benzamide]	7.09	8.10		
O=C(N[C@H]1C[C@H](c2nnc(-c3nccs3)n2-c2ccccc2Cl)C1)c1ccc(F)cc1 [Example 44, N-((1S,3r)-3-(4-(2-chlorophenyl)-5-(thiazol-2-yl)-4H-1,2,4-triazol-3-yl)cyclobutyl)-4-fluorobenzamide]	7.30	7.89		
CS(=O)(=O)c1ccc(-c2nnc([C@H]3C[C@H](NC(=O)c4ccnc5cc(F)cnc45)C3)n2-c2ccccc2F)nc1 [Example 50, 7-fluoro-N-((1S,3r)-3-(4-(2-fluorophenyl)-5-(5-(methylsulfonyl)pyridin-2-yl)-4H-1,2,4-triazol-3-yl)cyclobutyl)-1,5-naphthyridine-4-carboxamide]	9.64	8.80		
CCOc1ccc(-c2nnc([C@H]3C[C@H](NC(=O)c4ccccc4)C3)n2-c2ccccc2F)nc1 [Example 52, N-((1S,3r)-3-(5-(5-ethoxypyridin-2-yl)-4-(2-fluorophenyl)-4H-1,2,4-triazol-3-yl)cyclobutyl)benzamide]	7.14	8.02		
CCOc1ccc(-c2nnc([C@H]3C[C@H](NC(=O)c4cccc(C#N)n4)C3)n2-c2ccccc2F)nc1 [Example 53, 6-cyano-N-((1S,3r)-3-(5-(5-ethoxypyridin-2-yl)-4-(2-fluorophenyl)-4H-1,2,4-triazol-3-yl)cyclobutyl)picolinamide]	7.89	8.43		
CCOc1ccc(-c2nnc([C@H]3C[C@H](NC(=O)c4ccnc5cccnc45)C3)n2-c2ccccc2F)nc1 [Example 55, N-((1S,3r)-3-(5-(5-ethoxypyridin-2-yl)-4-(2-fluorophenyl)-4H-1,2,4-triazol-3-yl)cyclobutyl)-1,5-naphthyridine-4-carboxamide]		8.70	9.09	
CCOc1ccc(-c2nnc([C@H]3C[C@H](NC(=O)c4ccnc5cc(F)cnc45)C3)n2-c2ccccc2F)nc1 [Example 57, N-((1S,3r)-3-(5-(5-ethoxypyridin-2-yl)-4-(2-fluorophenyl)-4H-1,2,4-triazol-3-yl)cyclobutyl)-7-fluoro-1,5-naphthyridine-4-carboxamide]		8.70	9.77	
CCOc1ccc(C(=O)N[C@H]2C[C@H](c3nnc(-c4ccc(OCC)cn4)n3-c3ccccc3F)C2)nc1 [Example 58, 5-ethoxy-N-((1S,3r)-3-(5-(5-ethoxypyridin-2-yl)-4-(2-fluorophenyl)-4H-1,2,4-triazol-3-yl)cyclobutyl)picolinamide]	8.00	8.70		
CCOc1ccc(-c2nnc([C@H]3C[C@H](NC(=O)c4ccc(F)cn4)C3)n2-c2ccccc2F)nc1 [Example 59, N-((1S,3r)-3-(5-(5-ethoxypyridin-2-yl)-4-(2-fluorophenyl)-4H-1,2,4-triazol-3-yl)cyclobutyl)-5-fluoropicolinamide]	8.02	8.62		
CCOc1ccc(-c2nnc([C@H]3C[C@H](NC(=O)c4cccc5cccnc45)C3)n2-c2ccccc2F)nc1 [Example 60, N-((1S,3r)-3-(5-(5-ethoxypyridin-2-yl)-4-(2-fluorophenyl)-4H-1,2,4-triazol-3-yl)cyclobutyl)quinoline-8-carboxamide]	8.96	8.68		
CCOc1ccc(-c2nnc(C34CC(NC(=O)c5ccnc6cccnc56)(C3)C4)n2-c2ccccc2F)nc1 [Example 62, N-(3-(5-(5-ethoxypyridin-2-yl)-4-(2-fluorophenyl)-4H-1,2,4-triazol-3-yl)bicyclo[1.1.1]pentan-1-yl)-1,5-naphthyridine-4-carboxamide]	8.68	8.89		
CCOc1ccc(-c2nnc(C34CC(NC(=O)c5ccnc6cccnc56)(C3)C4)n2-c2ccccc2)nc1 [Example 64, N-(3-(5-(5-ethoxypyridin-2-yl)-4-phenyl-4H-1,2,4-triazol-3-yl)bicyclo[1.1.1]pentan-1-yl)-1,5-naphthyridine-4-carboxamide]	8.52	8.85		
CCOc1ccc(-c2nnc(C34CC(NC(=O)c5ccnc6cc(F)cnc56)(C3)C4)n2-c2ccccc2)nc1 [Example 65, N-(3-(5-(5-ethoxypyridin-2-yl)-4-phenyl-4H-1,2,4-triazol-3-yl)bicyclo[1.1.1]pentan-1-yl)-7-fluoro-1,5-naphthyridine-4-carboxamide]	8.00	8.85		
CCOc1ccc(-c2nnc(C34CC(NC(=O)c5ccccn5)(C3)C4)n2-c2ccccc2)nc1 [Example 66, N-(3-(5-(5-ethoxypyridin-2-yl)-4-phenyl-4H-1,2,4-triazol-3-yl)bicyclo[1.1.1]pentan-1-yl)picolinamide]	6.91	7.46		
CCOc1ccc(-c2nnc([C@H]3C[C@H](NC(=O)c4ccccn4)C3)n2-c2ccccc2)nc1 [Example 68, N-((1r,3r)-3-(5-(5-ethoxypyridin-2-yl)-4-phenyl-4H-1,2,4-triazol-3-yl)cyclobutyl)picolinamide]		8.28		7.19
CCOc1ccc(-c2nnc([C@H]3C[C@H](NC(=O)c4ccnc5cccnc45)C3)n2-c2ccccc2)nc1 [Example 69, N-((1r,3r)-3-(5-(5-ethoxypyridin-2-yl)-4-phenyl-4H-1,2,4-triazol-3-yl)cyclobutyl)-1,5-naphthyridine-4-carboxamide]	9.15	8.70		
CCOc1ccc(-c2nnc([C@H]3C[C@H](NC(=O)c4ccc(F)cc4)C3)n2-c2ccccc2)nc1 [Example 70, N-((1r,3r)-3-(5-(5-ethoxypyridin-2-yl)-4-phenyl-4H-1,2,4-triazol-3-yl)cyclobutyl)-4-fluorobenzamide]	7.32	8.07		
CCOc1ccc(-c2nnc([C@H]3C[C@H](NC(=O)c4ccccc4)C3)n2-c2ccccc2)nc1 [Example 72, N-((1r,3r)-3-(5-(5-ethoxypyridin-2-yl)-4-phenyl-4H-1,2,4-triazol-3-yl)cyclobutyl)benzamide]	7.52	7.85		
CCOc1ccc(-c2nnc([C@H]3C[C@H](NC(=O)c4nc5ccccc5[nH]4)C3)n2-c2ccccc2)nc1 [Example 73, N-((1r,3r)-3-(5-(5-ethoxypyridin-2-yl)-4-phenyl-4H-1,2,4-triazol-3-yl)cyclobutyl)-1H-benzo[d]imidazole-2-carboxamide]	6.99	8.15		
CCOc1ccc(-c2nnc([C@H]3C[C@H](NC(=O)c4ccccn4)C3)n2-c2ccc(Cl)s2)nc1 [Example 75, N-((1r,3r)-3-(4-(5-chlorothiophen-2-yl)-5-(5-ethoxypyridin-2-yl)-4H-1,2,4-triazol-3-yl)cyclobutyl)picolinamide]		7.92		7.57
CCOc1ccc(-c2nnc([C@H]3C[C@H](NC(=O)c4ccnc5cccnc45)C3)n2-c2ccc(Cl)s2)nc1 [Example 76, N-((1r,3r)-3-(4-(5-chlorothiophen-2-yl)-5-(5-ethoxypyridin-2-yl)-4H-1,2,4-triazol-3-yl)cyclobutyl)-1,5-naphthyridine-4-carboxamide]	8.96	8.70		

Reference: US11926614B2, “1,2,4-triazole derivatives as tankyrase inhibitors” (priority 2018, dated 2024)
